Results published in patent US11661426B2, “Imidazole-containing inhibitors of ALK2 kinase” (BioCryst Pharmaceuticals, Inc., priority 2017, dated 2023).

biological target: ALK2 (Homo sapiens (Human), UniProt Q04771); test: ALK2 inhibition, LanthaScreen Eu Kinase Binding Assay (ThermoFisher Scientific / Life Technologies); settings: read-out: Measured Ki (IC50) Value for Compounds: IC50
Method: Biochemical assays to measure the inhibitory effects of the compounds were performed by ThermoFisher Scientific (Life Technologies). ALK2 inhibition was tested using LanthaScreen™ Eu Kinase Binding Assay screening protocol.

Chain of ALK2 (Q04771 21-509): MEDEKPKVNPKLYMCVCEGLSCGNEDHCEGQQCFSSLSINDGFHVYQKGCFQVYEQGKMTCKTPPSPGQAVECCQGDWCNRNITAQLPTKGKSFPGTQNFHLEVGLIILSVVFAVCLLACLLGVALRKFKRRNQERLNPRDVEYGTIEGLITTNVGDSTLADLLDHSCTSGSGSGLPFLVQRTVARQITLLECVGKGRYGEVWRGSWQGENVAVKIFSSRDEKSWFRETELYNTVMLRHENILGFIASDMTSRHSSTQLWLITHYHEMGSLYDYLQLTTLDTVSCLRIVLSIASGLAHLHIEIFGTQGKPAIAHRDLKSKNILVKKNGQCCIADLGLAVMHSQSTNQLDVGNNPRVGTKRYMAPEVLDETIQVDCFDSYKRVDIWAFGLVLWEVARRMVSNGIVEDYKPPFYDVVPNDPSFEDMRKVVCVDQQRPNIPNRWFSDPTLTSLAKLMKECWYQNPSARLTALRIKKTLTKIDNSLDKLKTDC

`COc1cc(-n2cnc(Nc3nc(N4CCC[C@H]4CO)c4ccsc4n3)c2)cc(OC)c1OC` [Compound 133b, (S)-(1-(2-((1-(3,4,5-trimethoxyphenyl)-1H-imidazol-4-yl)amino)thieno[2,3-d]pyrimidin-4-yl)pyrrolidin-2-yl)methanol] and `COc1cc(-n2cnc(Nc3nc(N4CCC[C@H]4CO)c4sccc4n3)c2)cc(OC)c1OC` [Compound 138b, (S)-(1-(2-((1-(3,4,5-trimethoxyphenyl)-1H-imidazol-4-yl)amino)thieno[3,2-d]pyrimidin-4-yl)pyrrolidin-2-yl)methanol] cannot be ordered by IC50: < 100 nM for the first, < 100 nM for the second.

`COc1cc(-n2cnc(Nc3nc(-c4cccc(CO)c4)nn4cccc34)c2)cc(OC)c1OC` [Compound 134a, (3-(4-((1-(3,4,5-trimethoxyphenyl)-1H-imidazol-4-yl)amino)pyrrolo[2,1-f][1,2,4]triazin-2-yl)phenyl)methanol] and `COc1cc(-n2cnc(Nc3nc(-c4cccc(C(N)=O)c4)nn4cccc34)c2)cc(OC)c1OC` [Compound 136a, 3-(4-((1-(3,4,5-trimethoxyphenyl)-1H-imidazol-4-yl)amino)pyrrolo[2,1-f][1,2,4]triazin-2-yl)benzamide] cannot be ordered by IC50: < 100 nM for the first, < 100 nM for the second.

`COc1cc(-n2cnc(Nc3nc(-c4ccccc4C(N)=O)nn4cccc34)c2)cc(OC)c1OC` [Compound 135a, 2-(4-((1-(3,4,5-trimethoxyphenyl)-1H-imidazol-4-yl)amino)pyrrolo[2,1-f][1,2,4]triazin-2-yl)benzamide] and `COc1cc(-n2cnc(Nc3nc(-c4ccccc4CO)nn4cccc34)c2)cc(OC)c1OC` [Compound 137a, (2-(4-((1-(3,4,5-trimethoxyphenyl)-1H-imidazol-4-yl)amino)pyrrolo[2,1-f][1,2,4]triazin-2-yl)phenyl)methanol] cannot be ordered by IC50: < 100 nM for the first, < 100 nM for the second.

`COc1cc(-n2cnc(Nc3nc(N4CCC[C@H]4C(N)=O)c4sccc4n3)c2)cc(OC)c1OC` [Compound 139b, (S)-1-(2-((1-(3,4,5-trimethoxyphenyl)-1H-imidazol-4-yl)amino)thieno[3,2-d]pyrimidin-4-yl)pyrrolidine-2-carboxamide] and `COc1cc(-n2cnc(Nc3nc(N4CCC[C@H]4C(N)=O)c4occc4n3)c2)cc(OC)c1OC` [Compound 151b, (S)-1-(2-((1-(3,4,5-trimethoxyphenyl)-1H-imidazol-4-yl)amino)furo[3,2-d]pyrimidin-4-yl)pyrrolidine-2-carboxamide] fall in the same range of IC50: 100 to 1000 nM for the first, 100 to 1000 nM for the second.

`COc1cc(-n2cnc(Nc3nc(N4CCC[C@H]4CO)nc4cccnc34)c2)cc(OC)c1OC` [Compound 140c, (S)-(1-(4-((1-(3,4,5-trimethoxyphenyl)-1H-imidazol-4-yl)amino)pyrido[3,2-d]pyrimidin-2-yl)pyrrolidin-2-yl)methanol] and `COc1cc(-n2cnc(Nc3nc(N4CCC[C@H]4CO)nc4[nH]ccc34)c2)cc(OC)c1OC` [Compound 141d, (S)-(1-(4-((1-(3,4,5-trimethoxyphenyl)-1H-imidazol-4-yl)amino)-7H-pyrrolo[2,3-d]pyrimidin-2-yl)pyrrolidin-2-yl)methanol] cannot be ordered by IC50: < 100 nM for the first, < 100 nM for the second.

Compared with `COc1cc(-n2cnc(Nc3nc(N4CCC[C@H]4CO)nc4c3ccn4S(=O)(=O)c3ccc(C)cc3)c2)cc(OC)c1OC` [Compound 141c, (S)-(1-(7-tosyl-4-((1-(3,4,5-trimethoxyphenyl)-1H-imidazol-4-yl)amino)-7H-pyrrolo[2,3-d]pyrimidin-2-yl)pyrrolidin-2-yl)methanol], `COc1cc(-n2cnc(Nc3nc(N4CCC[C@H]4CO)nc4ccn(S(=O)(=O)c5ccc(C)cc5)c34)c2)cc(OC)c1OC` [Compound 160c, (S)-(1-(5-tosyl-4-((1-(3,4,5-trimethoxyphenyl)-1H-imidazol-4-yl)amino)-5H-pyrrolo[3,2-d]pyrimidin-2-yl)pyrrolidin-2-yl)methanol] is higher in IC50: < 100 nM for the first, > 1000 nM for the second. The first is the more potent here.

Compared with `COc1cc(-n2cnc(Nc3nc(N4CCC[C@H]4C(N)=O)nc4c3ccn4S(=O)(=O)c3ccc(C)cc3)c2)cc(OC)c1OC` [Compound 142a, (S)-1-(7-tosyl-4-((1-(3,4,5-trimethoxyphenyl)-1H-imidazol-4-yl)amino)-7H-pyrrolo[2,3-d]pyrimidin-2-yl)pyrrolidine-2-carboxamide], `COc1cc(-n2cnc(Nc3nc(N4CCC[C@H]4CO)c4ccn(S(=O)(=O)c5ccc(C)cc5)c4n3)c2)cc(OC)c1OC` [Compound 159b, (S)-(1-(7-tosyl-2-((1-(3,4,5-trimethoxyphenyl)-1H-imidazol-4-yl)amino)-7H-pyrrolo[2,3-d]pyrimidin-4-yl)pyrrolidin-2-yl)methanol] is higher in IC50: < 100 nM for the first, > 1000 nM for the second. The first is the more potent here.

`COc1cc(-n2cnc(Nc3nc(N4CCC[C@H]4C(N)=O)nc4[nH]ccc34)c2)cc(OC)c1OC` [Compound 142b, (S)-1-(4-((1-(3,4,5-trimethoxyphenyl)-1H-imidazol-4-yl)amino)-7H-pyrrolo[2,3-d]pyrimidin-2-yl)pyrrolidine-2-carboxamide] and `COc1cc(-n2cnc(Nc3nc(N4CCC[C@H]4C(N)=O)nc4sccc34)c2)cc(OC)c1OC` [Compound 155a, (S)-1-(4-((1-(3,4,5-trimethoxyphenyl)-1H-imidazol-4-yl)amino)thieno[2,3-d]pyrimidin-2-yl)pyrrolidine-2-carboxamide] cannot be ordered by IC50: < 100 nM for the first, < 100 nM for the second.

`COc1cc(-n2cnc(Nc3nc(N4CCC[C@H]4C(N)=O)nc4c(OC(C)C)cccc34)c2)cc(OC)c1OC` [Compound 143h, (S)-1-(8-isopropoxy-4-((1-(3,4,5-trimethoxyphenyl)-1H-imidazol-4-yl)amino)quinazolin-2-yl)pyrrolidine-2-carboxamide] and `COc1cc(-n2cnc(Nc3nc(N4CCC[C@H]4CO)nc4c(OC(C)C)cccc34)c2)cc(OC)c1OC` [Compound 144a, (S)-(1-(8-isopropoxy-4-((1-(3,4,5-trimethoxyphenyl)-1H-imidazol-4-yl)amino)quinazolin-2-yl)pyrrolidin-2-yl)methanol] cannot be ordered by IC50: < 100 nM for the first, < 100 nM for the second.

`COc1cc(-n2cnc(Nc3nc(N4CCC[C@H]4CO)nc4cc(OC(C)C)ccc34)c2)cc(OC)c1OC` [Compound 145h, (S)-(1-(7-isopropoxy-4-((1-(3,4,5-trimethoxyphenyl)-1H-imidazol-4-yl)amino)quinazolin-2-yl)pyrrolidin-2-yl)methanol] and `COc1cc(-n2cnc(Nc3nc(N4CCC[C@H]4CO)c4occc4n3)c2)cc(OC)c1OC` [Compound 148b, (S)-(1-(2-((1-(3,4,5-trimethoxyphenyl)-1H-imidazol-4-yl)amino)furo[3,2-d]pyrimidin-4-yl)pyrrolidin-2-yl)methanol] cannot be ordered by IC50: < 100 nM for the first, < 100 nM for the second.

`COc1cc(-n2cnc(Nc3nc(-c4cccc(C(N)=O)c4)nc4sccc34)c2)cc(OC)c1OC` [Compound 146a, 3-(4-((1-(3,4,5-trimethoxyphenyl)-1H-imidazol-4-yl)amino)thieno[2,3-d]pyrimidin-2-yl)benzamide] and `COc1cc(-n2cnc(Nc3nc(-c4ccccc4C(N)=O)nc4sccc34)c2)cc(OC)c1OC` [Compound 157a, 2-(4-((1-(3,4,5-trimethoxyphenyl)-1H-imidazol-4-yl)amino)thieno[2,3-d]pyrimidin-2-yl)benzamide] cannot be ordered by IC50: < 100 nM for the first, < 100 nM for the second.

Going from `COc1cc(-n2cnc(Nc3nc(N4CCC[C@H]4C(N)=O)c4cccn4n3)c2)cc(OC)c1OC` [Compound 147b, (S)-1-(2-((1-(3,4,5-trimethoxyphenyl)-1H-imidazol-4-yl)amino)pyrrolo[2,1-f][1,2,4]triazin-4-yl)pyrrolidine-2-carboxamide] to `COc1cc(-n2cnc(Nc3nc(N4CCCC4)nn4cccc34)c2)cc(OC)c1OC` [Compound 156a, 2-(pyrrolidin-1-yl)-N-(1-(3,4,5-trimethoxyphenyl)-1H-imidazol-4-yl)pyrrolo[2,1-f][1,2,4]triazin-4-amine], the IC50 falls from > 1000 nM to < 100 nM. The second is the more potent here.

First: COc1cc(-n2cnc(Nc3nc(N4CCC[C@H]4CO)nc4c3CN(Cc3ccccc3)CC4)c2)cc(OC)c1OC [Compound 149c, (S)-(1-(6-benzyl-4-((1-(3,4,5-trimethoxyphenyl)-1H-imidazol-4-yl)amino)-5,6,7,8-tetrahydropyrido[4,3-d]pyrimidin-2-yl)pyrrolidin-2-yl)methanol]
Second: COc1cc(-n2cnc(Nc3nc(N4CCC[C@H]4CO)nc4c3CCN(Cc3ccccc3)C4)c2)cc(OC)c1OC [Compound 153c, (S)-(1-(7-benzyl-4-((1-(3,4,5-trimethoxyphenyl)-1H-imidazol-4-yl)amino)-5,6,7,8-tetrahydropyrido[3,4-d]pyrimidin-2-yl)pyrrolidin-2-yl)methanol]
The IC50 of the first is higher: 100 to 1000 nM for the first, < 100 nM for the second. The second is the more potent here.

`COc1cc(-n2cnc(Nc3nc(N4CCC[C@H]4CO)c4ncsc4n3)c2)cc(OC)c1OC` [Compound 150c, (S)-(1-(5-((1-(3,4,5-trimethoxyphenyl)-1H-imidazol-4-yl)amino)thiazolo[5,4-d]pyrimidin-7-yl)pyrrolidin-2-yl)methanol] and `COc1cc(-n2cnc(Nc3nc(N4CCC[C@H]4CO)c4cc[nH]c4n3)c2)cc(OC)c1OC` [Compound 159c, (S)-(1-(2-((1-(3,4,5-trimethoxyphenyl)-1H-imidazol-4-yl)amino)-7H-pyrrolo[2,3-d]pyrimidin-4-yl)pyrrolidin-2-yl)methanol] cannot be ordered by IC50: < 100 nM for the first, < 100 nM for the second.

First: COc1cc(-n2cnc(Nc3nc(N4CCC[C@H]4C(N)=O)nc4c3CN(Cc3ccccc3)CC4)c2)cc(OC)c1OC [Compound 152a, (S)-1-(6-benzyl-4-(1-(3,4,5-trimethoxyphenyl)-1H-imidazol-4-ylamino)-5,6,7,8-tetrahydropyrido[4,3-d]pyrimidin-2-yl)pyrrolidine-2-carboxamide]
Second: COc1cc(-n2cnc(Nc3nc(N4CCC[C@H]4C(N)=O)nc4c3CCN(Cc3ccccc3)C4)c2)cc(OC)c1OC [Compound 154a, (S)-1-(7-benzyl-4-((1-(3,4,5-trimethoxyphenyl)-1H-imidazol-4-yl)amino)-5,6,7,8-tetrahydropyrido[3,4-d]pyrimidin-2-yl)pyrrolidine-2-carboxamide]
The IC50 of the first is higher: 100 to 1000 nM for the first, < 100 nM for the second.

`COc1cc(-n2cnc(Nc3nc(N4CCC[C@H]4C(N)=O)nc4scnc34)c2)cc(OC)c1OC` [Compound 158b, (S)-1-(7-((1-(3,4,5-trimethoxyphenyl)-1H-imidazol-4-yl)amino)thiazolo[5,4-d]pyrimidin-5-yl)pyrrolidine-2-carboxamide] was tested, and the IC50 was < 100 nM.
